Data: patent US12378224B2 (Dong-A Socio Holdings Co., Ltd., priority 2016, dated 2025)

Target: human c-MER catalytic domain (Homo sapiens (Human), UniProt Q12866)
Assay: TR-FRET Kinase Activity Biochemical Assay (LanthaScreen)
Conditions: 10 uM ATP, 1 hour, kinase not given
Outline: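 Activity was quantified as the ratio of 495 nm to 520 nm emission (excitation 340 nm) in a LanthaScreen TR-FRET format. The enzyme was the human c-MER catalytic domain, and the substrate was fluorescein-poly-GT. Detection used 2 nM Tb anti-phosphotyrosine antibody for 30 min after termination with 10 mM EDTA.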

Sequence of human c-MER catalytic domain (Q12866 587-858): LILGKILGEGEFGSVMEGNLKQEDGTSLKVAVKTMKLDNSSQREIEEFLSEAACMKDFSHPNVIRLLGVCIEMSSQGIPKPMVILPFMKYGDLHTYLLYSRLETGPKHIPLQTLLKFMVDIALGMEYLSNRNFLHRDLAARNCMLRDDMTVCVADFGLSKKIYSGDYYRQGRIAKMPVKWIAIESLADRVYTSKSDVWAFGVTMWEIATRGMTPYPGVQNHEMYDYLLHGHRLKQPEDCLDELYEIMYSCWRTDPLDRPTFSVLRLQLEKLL

Molecule	IC50 [nM]
Cn1cc(-c2cnc3[nH]nc(N[C@@H]4CCN(C(=O)c5ccc(-c6ccccc6Cl)cc5)C4)c3c2)cn1 [Example 617, (R)-(2′-chloro-[1,1′-biphenyl]-4-yl)(3-((5-(1-methyl-1H-pyrazol-4-yl)-1H-pyrazolo[3,4-b]pyridin-3-yl)amino)pyrrolidin-1-yl)methanone]	10 to 100
CN1CCN(Cc2ccc(-c3cccc(CCN4CC[C@@H](NC(=O)c5cc(-c6cnn(C)c6)cnc5N)C4)c3)cc2)CC1 [Example 253, (R)-2-amino-5-(1-methyl-1H-pyrazol-4-yl)-N-(1-(2-(4′-((4-methylpiperazin-1-yl)methyl)-[1,1′-biphenyl]-3-yl)ethyl)pyrrolidin-3-yl)nicotinamide]	> 1000
Cn1cc(-c2cnc(N)c(C(=O)N[C@@H]3CCN(C(=O)Cc4cccc(Br)c4)C3)c2)cn1 [Example 421, (R)-2-amino-N-(1-(2-(3-bromophenyl)acetyl)pyrrolidin-3-yl)-5-(1-methyl-1H-pyrazol-4-yl)nicotinamide]	> 1000
CN1CCN(Cc2ccc(-c3ccc(NC(=O)N4CC[C@@H](NC(=O)c5cc(-c6cnn(C)c6)cnc5N)C4)cc3)cc2)CC1 [Example 273, (R)-2-amino-5-(1-methyl-1H-pyrazol-4-yl)-N-(1-((4′-((4-methylpiperazin-1-yl)methyl)-[1,1′-biphenyl]-4-yl)carbamoyl)pyrrolidin-3-yl)nicotinamide]	> 1000
Cn1cc(-c2cnc(N)c(C(=O)N[C@@H]3CCN(C(=O)C4Cc5ccccc5C4)C3)c2)cn1 [Example 496, (R)-2-amino-N-(1-(2,3-dihydro-1H-indene-2-carbonyl)pyrrolidin-3-yl)-5-(1-methyl-1H-pyrazol-4-yl)nicotinamide]	> 1000
Cn1cc(-c2cnc(N)c(C(=O)N[C@H]3CCN(C(=O)c4ccc(-c5ccccc5)cc4)C3)c2)cn1 [Example 346, (S)—N-(1-([1,1′-biphenyl]-4-carbonyl)pyrrolidin-3-yl)-2-amino-5-(1-methyl-1H-pyrazol-4-yl)nicotinamide]	> 1000
CC(=O)n1ccc2c(C(=O)N3CC[C@@H](NC(=O)c4cc(-c5cnn(C)c5)cnc4N)C3)cccc21 [Example 514, (R)—N-(1-(1-acetyl-1H-indole-4-carbonyl)pyrrolidin-3-yl)-2-amino-5-(1-methyl-1H-pyrazol-4-yl)nicotinamide]	> 1000
Cc1csc(C(=O)N2CC[C@@H](NC(=O)c3cc(-c4cnn(C)c4)cnc3N)C2)c1 [Example 409, (R)-2-amino-5-(1-methyl-1H-pyrazol-4-yl)-N-(1-(4-methylthiophene-2-carbonyl)pyrrolidin-3-yl)nicotinamide]	> 1000
COc1cc(NC(=O)N2CC[C@@H](NC(=O)c3cc(-c4cnn(C)c4)cnc3N)C2)cc(OC)c1OC [Example 35, (R)-2-amino-5-(1-methyl-1H-pyrazol-4-yl)-N-(1-((3,4,5-trimethoxyphenyl)carbamoyl)pyrrolidin-3-yl)nicotinamide]	100 to 1000
Cn1cc(-c2cnc(N)c(C(=O)N[C@@H]3CCN(C(=O)c4cc(-c5ccccc5)ccc4N)C3)c2)cn1 [Example 486, (R)-2-amino-N-(1-(4-amino-[1,1′-biphenyl]-3-carbonyl)pyrrolidin-3-yl)-5-(1-methyl-1H-pyrazol-4-yl)nicotinamide]	100 to 1000
COc1ccccc1CN1CC[C@@H](NC(=O)c2cc(-c3cnn(C4CCNCC4)c3)cnc2N)C1 [Example 167, (R)-2-amino-N-(1-(2-methoxybenzyl)pyrrolidin-3-yl)-5-(1-(piperidin-4-yl)-1H-pyrazol-4-yl)nicotinamide]	100 to 1000
(R,E)-2-amino-5-(1-methyl-1H-pyrazol-4-yl)-N-(1-(4-(3-oxobut-1-en-1-yl)benzoyl)pyrrolidin-3-yl)nicotinamide [Example 681]	> 1000
Cn1cc(-c2cnc(N)c(C(=O)N[C@@H]3CCN(Cc4ccc(F)c(-c5ccccc5)c4)C3)c2)cn1 [Example 249, (R)-2-amino-N-(1-((6-fluoro-[1,1′-biphenyl]-3-yl)methyl)pyrrolidin-3-yl)-5-(1-methyl-1H-pyrazol-4-yl)nicotinamide]	100 to 1000
Cn1cc(-c2cnc(N)c(C(=O)N[C@H]3CN(C(=O)c4ccc(Br)cc4)C[C@@H]3O)c2)cn1 [Example 732, 2-amino-N-((3S,4S)-1-(4-bromobenzoyl)-4-hydroxypyrrolidin-3-yl)-5-(1-methyl-1H-pyrazol-4-yl)nicotinamide]	> 1000
CSc1ccc(-c2ccc(C(=O)N3CC[C@@H](NC(=O)c4cc(-c5cnn(C)c5)cnc4N)C3)cc2)cc1 [Example 665, (R)-2-amino-5-(1-methyl-1H-pyrazol-4-yl)-N-(1-(4′-(methylthio)-[1,1′-biphenyl]-4-carbonyl)pyrrolidin-3-yl)nicotinamide]	100 to 1000
Cn1cc(-c2cnc(N)c(C(=O)N[C@@H]3CCN(C(=O)c4cccc(-c5ccoc5)c4)C3)c2)cn1 [Example 468, (R)-2-amino-N-(1-(3-(furan-3-yl)benzoyl)pyrrolidin-3-yl)-5-(1-methyl-1H-pyrazol-4-yl)nicotinamide]	> 1000
Cn1cc(-c2cnc(N)c(C(=O)N[C@@H]3CCN(C(=O)c4ccc(-c5c(F)cccc5F)cc4)C3)c2)cn1 [Example 364, (R)-2-amino-N-(1-(2′,6′-difluoro-[1,1′-biphenyl]-4-carbonyl)pyrrolidin-3-yl)-5-(1-methyl-1H-pyrazol-4-yl)nicotinamide]	10 to 100
Cc1ccc(-c2ccc(C(=O)N3CC[C@@H](Nc4n[nH]c5ncc(-c6cnn(C)c6)cc45)C3)cc2)s1 [Example 615, (R)-(3-((5-(1-methyl-1H-pyrazol-4-yl)-1H-pyrazolo[3,4-b]pyridin-3-yl)amino)pyrrolidin-1-yl)(4-(5-methylthiophen-2-yl)phenyl)methanone]	10 to 100
COC(=O)[C@H]1C[C@@H](NC(=O)c2cc(-c3cnn(C)c3)cnc2N)CN1C(=O)c1ccc(-c2ccc(F)cc2Cl)cc1 [Example 689, methyl (2R,4R)-4-(2-amino-5-(1-methyl-1H-pyrazol-4-yl)nicotinamido)-1-(2′-chloro-4′-fluoro-[1,1′-biphenyl]-4-carbonyl)pyrrolidine-2-carboxylate]	> 1000
Cn1cc(-c2cnc(N)c(C(=O)N[C@@H]3CCN(Cc4ccccc4-c4ccc(CO)cc4)C3)c2)cn1 [Example 248, (R)-2-amino-N-(1-((4′-(hydroxymethyl)-[1,1′-biphenyl]-2-yl)methyl)pyrrolidin-3-yl)-5-(1-methyl-1H-pyrazol-4-yl)nicotinamide]	100 to 1000
CCSc1ccc(-c2ccc(C(=O)N3CC[C@@H](NC(=O)c4cc(-c5cnn(C)c5)cnc4N)C3)cc2)cc1 [Example 666, (R)-2-amino-N-(1-(4′-(ethylthio)-[1,1′-biphenyl]-4-carbonyl)pyrrolidin-3-yl)-5-(1-methyl-1H-pyrazol-4-yl)nicotinamide]	100 to 1000
Cc1ccc(N2CC[C@@H](NC(=O)c3cc(-c4cnn(C)c4)cnc3N)C2)cc1 [Example 134, (R)-2-amino-5-(1-methyl-1H-pyrazol-4-yl)-N-(1-(p-tolyl)pyrrolidin-3-yl)nicotinamide]	> 1000
CN1CCN(Cc2ccc(-c3cc(Cl)cc(OC(=O)N4CC[C@@H](NC(=O)c5cc(-c6cnn(C)c6)cnc5N)C4)c3)cc2)CC1 [Example 292, 5-chloro-4′-((4-methylpiperazin-1-yl)methyl)-[1,1′-biphenyl]-3-yl (R)-3-(2-amino-5-(1-methyl-1H-pyrazol-4-yl)nicotinamido)pyrrolidine-1-carboxylate]	< 10
Nc1ncc(-c2ccc(N3CCOCC3)cc2)cc1C(=O)N[C@@H]1CCN(C(=O)c2ccc(-c3ccccc3Cl)cc2)C1 [Example 571, (R)-2-amino-N-(1-(2′-chloro-[1,1′-biphenyl]-4-carbonyl)pyrrolidin-3-yl)-5-(4-morpholinophenyl)nicotinamide]	10 to 100
CCc1ccccc1NC(=O)N1CC[C@@H](NC(=O)c2cc(-c3cnn(C)c3)cnc2N)C1 [Example 20, (R)-2-amino-N-(1-((2-ethylphenyl)carbamoyl)pyrrolidin-3-yl)-5-(1-methyl-1H-pyrazol-4-yl)nicotinamide]	> 1000
CN1CCN(Cc2ccc(-c3cnc(N)c(C(=O)N[C@@H]4CCN(Cc5ccc(Cl)cc5)C4)c3)cc2)CC1 [Example 236, (R)-2-amino-N-(1-(4-chlorobenzyl)pyrrolidin-3-yl)-5-(4-((4-methylpiperazin-1-yl)methyl)phenyl)nicotinamide]	100 to 1000
CN1CCN(Cc2cccc(N3CC[C@H](OC(=O)N4CC[C@@H](NC(=O)c5cc(-c6cnn(C)c6)cnc5N)C4)C3)c2)CC1 [Example 626, (S)-1-(3-((4-methylpiperazin-1-yl)methyl)phenyl)pyrrolidin-3-yl (R)-3-(2-amino-5-(1-methyl-1H-pyrazol-4-yl)nicotinamido)pyrrolidine-1-carboxylate]	> 1000
Cn1cc(-c2cnc(N)c(C(=O)N[C@@H]3CCN(C(=O)Oc4ccc5ccc(OC6CCNCC6)cc5c4)C3)c2)cn1 [Example 294, 7-(piperidin-4-yloxy)naphthalen-2-yl (R)-3-(2-amino-5-(1-methyl-1H-pyrazol-4-yl)nicotinamido)pyrrolidine-1-carboxylate]	10 to 100
Cn1cc(-c2cnc(N)c(C(=O)N[C@@H]3CCN(C(=O)c4ccc(-c5ccc(F)cc5Cl)cc4)C3)n2)cn1 [Example 745, (R)-3-amino-N-(1-(2′-chloro-4′-fluoro-[1,1′-biphenyl]-4-carbonyl)pyrrolidin-3-yl)-6-(1-methyl-1H-pyrazol-4-yl)pyrazine-2-carboxamide]	10 to 100
Cn1cc(-c2cnc(N)c(C(=O)N[C@@H]3CCN(C(=O)Oc4cccc(-c5ccc(CN6CCC[C@H](N)C6)cc5)c4)C3)c2)cn1 [Example 332, 4′-(((S)-3-aminopiperidin-1-yl)methyl)-[1,1′-biphenyl]-3-yl (R)-3-(2-amino-5-(1-methyl-1H-pyrazol-4-yl)nicotinamido)pyrrolidine-1-carboxylate]	10 to 100
